Legend:
mice [1] = assay: animal or person; format: in vivo; settings: Mus musculus, ip, phenylquinone i.p., dose which eliminates any writhing in 50% of the treated mice
Excerpt: (§1) Using mice, the compounds of this invention were subjected to the Tail Flick Analgesic Assay, the Writhing Analgesic Assay, the Straub Tail Antagonist Assay and the Mouse Jump Physical Dependence Assay, said assays being described in the literature as follows:
Blumberg, H., Wolf, P. S. and Dayton, H. B., Proc. soc. Exper. Biol. Med., 118, 763 (1965).
The ED50 values given in Table 1 below represent the dose (μM/kg) which eliminates any such writhing in 50% of the treated mice.

mice [2] = assay: Mouse Jump Physical Dependence Assay; format: in vivo; settings: for Total Number Mice Affected (Jumped): i.p., 30 min; for number of mice jumping / withdrawal symptoms (in words): Naloxone 100 mg/kg on day 4, 30 minutes
Excerpt: as §1
Saelens, J. K., Granat, F. R. and Sawyer, W. K. Arch. int. Pharmacodyn 190, 213-218 (1971).
Using mice, tests were made to determine the physical dependence capacity of compounds 7(S) 7(R) and 9 as measured by the Mouse Jump Test, this being a simple screening method to estimate the physical dependence capacity of analgesics. In this mouse jumping test, the mice are injected (i.p.) 5× on day 1 with gradually increasing dosages ranging from 8 to 100 mg/kg of body weight. On days 2 and 3 the mice (in all except one test) were given 100 mg/kg 4×. In the one test, dosage was raised to 200-300 mg/kg on day 2 and to 300 mg/kg on day 3. On day 4 all the mice received one shot (100 mg/kg) of the antogonist Naloxone. Following this all mice were caged for 30 minutes and a record was made of the number of mice jumping during this interval.

mice [3] = assay: animal or person; format: in vivo, mouse; settings: for ED50: Mus musculus, mice, dose [micromoles per kg of body weight] which gives a group mean response time of 5 seconds, read-out: Tail Flick (ED50); for analgesic activity (in words): summary statement, mice tail flick and writhing assays
Excerpt: as §1
Tail Flick Analgesic Assay
D'Amour, F. E and Smith, D. L., J. Pharmacol. Exp. Therap. 72, 74-79 (1941)
Howes, J. F., Harris, L. S., Dewey, W. L. and Voyda, C. A., J. Pharmacol. Exp. Therap. 169, 23-28 (1969)
Dewey, W. L., Harris, L. S., Howes, J. F. and Nuite, J. A., J. Pharmacol. Exp. Therap. 175, 435-442 (1970)
The Tail Flick Analgesic Assay represents a test procedure in which heat from an intense light source is focused on the mouse's tail. When pain is detected by the mouse the tail gives a characteristic flicking response. In untreated controls the intervals from exposure to flick is about 2 seconds, while when using an effective analgesic the interval from exposure to flick is usually about 6 to 10 seconds. The ED50 values given in Table 1 below represent the dose [micromoles (μM) per kg of body weight] which gives a group mean response time of 5 seconds.

mice [4] = assay: Straub Tail Antagonist Assay (morphine-injected mice); format: in vivo, mouse; settings: for ED50: Mus musculus, dose which abolishes the response in 50% of the test mice, read-out: Inhibition of Straub tail response (ED50); for antagonist properties (in words): summary statement
Excerpt: as §1
Straub Tail Antagonist Assay
Blumberg, H. and Dayton, H. B. In Narcotic antagonists Advances in Biochemical Psychopharmacology, Vol. 8, Ed., Brande, M. C., Harris L. S.

[5] = cited from earlier work; for analgesic / agonist activity (in words): literature
[6] = literature; cited from earlier work
[7] = 8-100 mg/kg day 1, 100 mg/kg days 2 and 3, 100 mg/kg Naloxone day 4, mice tested: 7(S) 20, 7(R) 12, 9 10, Morphine 10, Nalline 12

CC[C@@H](C)N1CC[C@]23c4c5ccc(O)c4O[C@H]2[C@@H](O)C=C[C@H]3[C@H]1C5 [7(R), N-2-butylnormorphine]
ED50 (mice [1]): 6.4 µmol/kg | Total Number Mice Affected (Jumped) (mice [2]; [7]): 1 | number of mice jumping / withdrawal symptoms (in words) (mice [2]): very small | ED50 (mice [3]): 19 µmol/kg | ED50 (mice [4]; mice injected with morphine): 16.2 µmol/kg

CC[C@H](C)N1CC[C@]23c4c5ccc(O)c4O[C@H]2[C@@H](O)C=C[C@H]3[C@H]1C5 [7(S), N-2-butylnormorphine]
ED50 (mice [1]): 11 µmol/kg | Total Number Mice Affected (Jumped) (mice [2]; [7]): 2 | Total Number Mice Affected (Jumped) (mice [2]; 8-100 mg/kg day 1, 200-300 mg/kg day 2, 300 mg/kg day 3, 100 mg/kg Naloxone day 4, 10 mice tested): 1 | number of mice jumping / withdrawal symptoms (in words) (mice [2]): very small | ED50 (mice [3]): 13.4 µmol/kg | ED50 (mice [4]; mice injected with morphine): 7.4 µmol/kg

C=C[C@@H](C)N1CC[C@]23c4c5ccc(O)c4O[C@H]2[C@@H](O)C=C[C@H]3[C@H]1C5 [8(R), N-α-methylallylnormorphine]
ED50 (mice [1]): 13 µmol/kg | ED50 (mice [3]): 44.5 µmol/kg | ED50 (mice [4]; mice injected with morphine): 11 µmol/kg

CCC(C)N1CC[C@]23c4c5ccc(O)c4O[C@H]2[C@@H](O)C=C[C@H]3[C@H]1C5 (stereo partly shown) [Compound 7, N-2-butylnormorphine]
analgesic activity (in words) (mice [3]): analgesic activities similar to morphine | antagonist properties (in words) (mice [4]): antagonist properties indicative of low addiction potential

C=CC(C)N1CC[C@]23c4c5ccc(O)c4O[C@H]2[C@@H](O)C=C[C@H]3[C@H]1C5 (stereo partly drawn) [Compound 8, N-α-methylallylnormorphine]
analgesic activity (in words) (mice [3]): analgesic activities similar to morphine | antagonist properties (in words) (mice [4]): antagonist properties indicative of low addiction potential

CC(C1CC1)N1CC[C@]23c4c5ccc(O)c4O[C@H]2[C@@H](O)C=C[C@H]3[C@H]1C5 (stereo partly drawn) [Compound 9, N-α-methylcyclopropylmethylnormorphine]
ED50 (mice [1]): 0.69 µmol/kg | Total Number Mice Affected (Jumped) (mice [2]; [7]): 1 | number of mice jumping / withdrawal symptoms (in words) (mice [2]): very small | ED50 (mice [3]): 12.4 µmol/kg | analgesic activity (in words) (mice [3]): analgesic activities similar to morphine | ED50 (mice [4]; mice injected with morphine): 4.5 µmol/kg | antagonist properties (in words) (mice [4]): antagonist properties indicative of low addiction potential

CCC(CC)N1CC[C@]23c4c5ccc(O)c4O[C@H]2[C@@H](O)C=C[C@H]3[C@H]1C5 [Compound 10, N-3-pentylnormorphine]
ED50 (mice [1]): 2.3 µmol/kg | ED50 (mice [3]): 19.9 µmol/kg | analgesic activity (in words) (mice [3]): analgesic activities similar to morphine | ED50 (mice [4]; mice injected with morphine): 17.2 µmol/kg | antagonist properties (in words) (mice [4]): antagonist properties indicative of low addiction potential

CN1CC[C@]23c4c5ccc(O)c4O[C@H]2[C@@H](O)C=C[C@H]3[C@H]1C5 [Morphine]
Total Number Mice Affected (Jumped) (mice [2]; [7]): 10 | number of mice jumping / withdrawal symptoms (in words) (mice [2]): all of the mice showed withdrawal symptoms | Inhibition of Straub tail response (result in words) (mice [4]; mice injected with morphine): No inhibition

CCCCCN1CC[C@]23c4c5ccc(O)c4O[C@H]2[C@@H](O)C=C[C@H]3[C@H]1C5 [N-amyl-, N-amylnormorphine]
analgesic / agonist activity (in words) [5]: potent analgesic activity | antagonist activity (in words) [6]: devoid of antagonist properties

CCCCN1CC[C@]23c4c5ccc(O)c4O[C@H]2[C@@H](O)C=C[C@H]3[C@H]1C5 [N-butyl-, N-butylnormorphine]
analgesic / agonist activity (in words) [5]: potent analgesic activity | antagonist activity (in words) [6]: devoid of antagonist properties

CCCCCCN1CC[C@]23c4c5ccc(O)c4O[C@H]2[C@@H](O)C=C[C@H]3[C@H]1C5 [N-hexylnormorphine]
analgesic / agonist activity (in words) [5]: potent analgesic activity | antagonist activity (in words) [6]: devoid of antagonist properties

CC(C)CN1CC[C@]23c4c5ccc(O)c4O[C@H]2[C@@H](O)C=C[C@H]3[C@H]1C5 [N-isobutylnormorphine]
antagonist activity (in words) [6]: morphine antagonists only

COc1ccc2c3c1O[C@H]1[C@@H](O)C=C[C@H]4[C@@H](C2)N(C(C)C)CC[C@@]341 [N-isopropyl-norcodeine]
analgesic / agonist activity (in words) [5]: inactive

CC(C)N1CC[C@]23c4c5ccc(O)c4O[C@H]2[C@@H](O)C=C[C@H]3[C@H]1C5 [N-isopropyl-normorphine]
analgesic / agonist activity (in words) [5]: not a good agonist | antagonist activity (in words) [6]: little, if any, antagonist qualities

CCCN1CC[C@]23c4c5ccc(O)c4O[C@H]2[C@@H](O)C=C[C@H]3[C@H]1C5 [N-propyl normorphine]
antagonist activity (in words) [6]: morphine antagonists only

C=CCN1CC[C@]23c4c5ccc(O)c4O[C@H]2[C@@H](O)C=C[C@H]3[C@H]1C5 [Nalorphine, N-allylnormorphine, reference compound]
Total Number Mice Affected (Jumped) (mice [2]; [7]): 0-3 | number of mice jumping / withdrawal symptoms (in words) (mice [2]): very small | ED50 (mice [4]; mice injected with morphine): 1 µmol/kg

CC(C)=CCN1CCC2(C)c3cc(O)ccc3CC1C2C (stereo not shown) [pentazocine]
analgesic potency relative to morphine ([5]; fraction of the potency of morphine): about one-fourth | antagonist activity (in words) [6]: dual agonist-antagonist

— patent US4269843A, “N-Sec-alkyl analogs of norcodeine and normorphine and analgesic compositions and methods employing the normorphine derivatives” (priority 1980, dated 1981)
